Experimental data: ChEMBL document CHEMBL1156163, “(18)F Labeled benzimidazole derivatives as potential radiotracer for positron emission tomography (PET) tumor imaging” (Bioorg Med Chem, 2010)

Key:
[1] = system: Heart; test: Biodistribution in mouse S180 cells xenografted Kunming mouse heart at 10 to 20 uCi, iv after 5 mins by gamma counting; type: ADME, organism-based, CCRF S-180; conditions: in vivo
[2] = system: Blood; test: Biodistribution in mouse S180 cells xenografted Kunming mouse blood at 10 to 20 uCi, iv after 120 mins by gamma counting; type: ADME, organism-based, CCRF S-180; conditions: in vivo, 2 h
[3] = system: Heart; test: Biodistribution in mouse S180 cells xenografted Kunming mouse heart at 10 to 20 uCi, iv after 15 mins by gamma counting; type: ADME, organism-based, CCRF S-180; conditions: in vivo, 0.25 h
[4] = system: Blood; test: Biodistribution in mouse S180 cells xenografted Kunming mouse blood at 10 to 20 uCi, iv after 60 mins by gamma counting; type: ADME, organism-based, CCRF S-180; conditions: in vivo, 1 h
[5] = system: Lung; test: Biodistribution in mouse S180 cells xenografted Kunming mouse lung at 10 to 20 uCi, iv after 15 mins by gamma counting; type: ADME, organism-based, CCRF S-180; conditions: in vivo, 0.25 h
[6] = system: Lung; test: Biodistribution in mouse S180 cells xenografted Kunming mouse lung at 10 to 20 uCi, iv after 120 mins by gamma counting; type: ADME, organism-based, CCRF S-180; conditions: in vivo, 2 h
[7] = system: Heart; test: Biodistribution in mouse S180 cells xenografted Kunming mouse heart at 10 to 20 uCi, iv after 60 mins by gamma counting; type: ADME, organism-based, CCRF S-180; conditions: in vivo, 1 h
[8] = Ratio of drug uptake in tumor to muscle of mouse S180 cells xenografted Kunming mouse at 10 to 20 uCi, iv after 60 mins by gamma counting; type: ADME, organism-based, CCRF S-180; conditions: in vivo, 1 h
[9] = system: Heart; test: Biodistribution in mouse S180 cells xenografted Kunming mouse heart at 10 to 20 uCi, iv after 120 mins by gamma counting; type: ADME, organism-based, CCRF S-180; conditions: in vivo, 2 h
[10] = Ratio of drug uptake in tumor to muscle of mouse S180 cells xenografted Kunming mouse at 10 to 20 uCi, iv after 15 mins by gamma counting; type: ADME, organism-based, CCRF S-180; conditions: in vivo, 0.25 h
[11] = system: Blood; test: Biodistribution in mouse S180 cells xenografted Kunming mouse blood at 10 to 20 uCi, iv after 5 mins by gamma counting; type: ADME, organism-based, CCRF S-180; conditions: in vivo
[12] = Ratio of drug uptake in tumor to brain of mouse S180 cells xenografted Kunming mouse at 10 to 20 uCi, iv after 120 mins by gamma counting; type: ADME, organism-based, CCRF S-180; conditions: in vivo, 2 h
[13] = system: Pancreas; test: Biodistribution in mouse S180 cells xenografted Kunming mouse pancreas at 10 to 20 uCi, iv after 5 mins by gamma counting; type: ADME, organism-based, CCRF S-180; conditions: in vivo
[14] = Ratio of drug uptake in tumor to brain of mouse S180 cells xenografted Kunming mouse at 10 to 20 uCi, iv after 60 mins by gamma counting; type: ADME, organism-based, CCRF S-180; conditions: in vivo, 1 h
[15] = Ratio of drug uptake in tumor to muscle of mouse S180 cells xenografted Kunming mouse at 10 to 20 uCi, iv after 5 mins by gamma counting; type: ADME, organism-based, CCRF S-180; conditions: in vivo
[16] = system: Kidney; test: Biodistribution in mouse S180 cells xenografted Kunming mouse kidney at 10 to 20 uCi, iv after 30 mins by gamma counting; type: ADME, organism-based, CCRF S-180; conditions: in vivo, 0.5 h
[17] = Ratio of drug uptake in tumor to blood of mouse S180 cells xenografted Kunming mouse at 10 to 20 uCi, iv after 120 mins by gamma counting; type: ADME, organism-based, CCRF S-180; conditions: tumour, 2 h
[18] = system: Muscle tissue; test: Biodistribution in mouse S180 cells xenografted Kunming mouse muscle at 10 to 20 uCi, iv after 60 mins by gamma counting; type: ADME, organism-based, CCRF S-180; conditions: in vivo, 1 h
[19] = Biodistribution in mouse S180 cells xenografted Kunming mouse tumor at 10 to 20 uCi, iv after 120 mins by gamma counting; type: ADME, organism-based, Neoplasm, CCRF S-180; conditions: in vivo, 2 h
[20] = Biodistribution in mouse S180 cells xenografted Kunming mouse tumor at 10 to 20 uCi, iv after 5 mins by gamma counting; type: ADME, organism-based, Neoplasm, CCRF S-180; conditions: in vivo
[21] = system: Pancreas; test: Biodistribution in mouse S180 cells xenografted Kunming mouse pancreas at 10 to 20 uCi, iv after 15 mins by gamma counting; type: ADME, organism-based, CCRF S-180; conditions: in vivo, 0.25 h
[22] = system: Muscle tissue; test: Biodistribution in mouse S180 cells xenografted Kunming mouse muscle at 10 to 20 uCi, iv after 15 mins by gamma counting; type: ADME, organism-based, CCRF S-180; conditions: in vivo, 0.25 h
[23] = system: Muscle tissue; test: Biodistribution in mouse S180 cells xenografted Kunming mouse muscle at 10 to 20 uCi, iv after 5 mins by gamma counting; type: ADME, organism-based, CCRF S-180; conditions: in vivo
[24] = system: Kidney; test: Biodistribution in mouse S180 cells xenografted Kunming mouse kidney at 10 to 20 uCi, iv after 60 mins by gamma counting; type: ADME, organism-based, CCRF S-180; conditions: in vivo, 1 h
[25] = Biodistribution in mouse S180 cells xenografted Kunming mouse tumor at 10 to 20 uCi, iv after 30 mins by gamma counting; type: ADME, organism-based, Neoplasm, CCRF S-180; conditions: in vivo, 0.5 h
[26] = system: Muscle tissue; test: Biodistribution in mouse S180 cells xenografted Kunming mouse muscle at 10 to 20 uCi, iv after 120 mins by gamma counting; type: ADME, organism-based, CCRF S-180; conditions: in vivo, 2 h
[27] = system: Pancreas; test: Biodistribution in mouse S180 cells xenografted Kunming mouse pancreas at 10 to 20 uCi, iv after 120 mins by gamma counting; type: ADME, organism-based, CCRF S-180; conditions: in vivo, 2 h
[28] = system: Pancreas; test: Biodistribution in mouse S180 cells xenografted Kunming mouse pancreas at 10 to 20 uCi, iv after 30 mins by gamma counting; type: ADME, organism-based, CCRF S-180; conditions: in vivo, 0.5 h
[29] = system: Liver; test: Biodistribution in mouse S180 cells xenografted Kunming mouse liver at 10 to 20 uCi, iv after 60 mins by gamma counting; type: ADME, organism-based, CCRF S-180; conditions: in vivo, 1 h
[30] = system: Liver; test: Biodistribution in mouse S180 cells xenografted Kunming mouse liver at 10 to 20 uCi, iv after 30 mins by gamma counting; type: ADME, organism-based, CCRF S-180; conditions: in vivo, 0.5 h
[31] = system: Liver; test: Biodistribution in mouse S180 cells xenografted Kunming mouse liver at 10 to 20 uCi, iv after 5 mins by gamma counting; type: ADME, organism-based, CCRF S-180; conditions: in vivo
[32] = system: Liver; test: Biodistribution in mouse S180 cells xenografted Kunming mouse liver at 10 to 20 uCi, iv after 120 mins by gamma counting; type: ADME, organism-based, CCRF S-180; conditions: in vivo, 2 h
[33] = Ratio of drug uptake in tumor to blood of mouse S180 cells xenografted Kunming mouse at 10 to 20 uCi, iv after 5 mins by gamma counting; type: ADME, organism-based, CCRF S-180; conditions: tumour
[34] = Ratio of drug uptake in tumor to muscle of mouse S180 cells xenografted Kunming mouse at 10 to 20 uCi, iv after 30 mins by gamma counting; type: ADME, organism-based, CCRF S-180; conditions: in vivo, 0.5 h
[35] = Biodistribution in mouse S180 cells xenografted Kunming mouse tumor at 10 to 20 uCi, iv after 15 mins by gamma counting; type: ADME, organism-based, Neoplasm, CCRF S-180; conditions: in vivo, 0.25 h
[36] = system: Lung; test: Biodistribution in mouse S180 cells xenografted Kunming mouse lung at 10 to 20 uCi, iv after 30 mins by gamma counting; type: ADME, organism-based, CCRF S-180; conditions: in vivo, 0.5 h
[37] = system: Brain; test: Biodistribution in mouse S180 cells xenografted Kunming mouse brain at 10 to 20 uCi, iv after 60 mins by gamma counting; type: ADME, organism-based, CCRF S-180; conditions: in vivo, 1 h
[38] = Ratio of drug uptake in tumor to muscle of mouse S180 cells xenografted Kunming mouse at 10 to 20 uCi, iv after 120 mins by gamma counting; type: ADME, organism-based, CCRF S-180; conditions: in vivo, 2 h
[39] = system: Lung; test: Biodistribution in mouse S180 cells xenografted Kunming mouse lung at 10 to 20 uCi, iv after 60 mins by gamma counting; type: ADME, organism-based, CCRF S-180; conditions: in vivo, 1 h
[40] = system: Liver; test: Biodistribution in mouse S180 cells xenografted Kunming mouse liver at 10 to 20 uCi, iv after 15 mins by gamma counting; type: ADME, organism-based, CCRF S-180; conditions: in vivo, 0.25 h
[41] = system: Brain; test: Biodistribution in mouse S180 cells xenografted Kunming mouse brain at 10 to 20 uCi, iv after 15 mins by gamma counting; type: ADME, organism-based, CCRF S-180; conditions: in vivo, 0.25 h
[42] = system: Brain; test: Biodistribution in mouse S180 cells xenografted Kunming mouse brain at 10 to 20 uCi, iv after 120 mins by gamma counting; type: ADME, organism-based, CCRF S-180; conditions: in vivo, 2 h
[43] = system: Blood; test: Biodistribution in mouse S180 cells xenografted Kunming mouse blood at 10 to 20 uCi, iv after 30 mins by gamma counting; type: ADME, organism-based, CCRF S-180; conditions: in vivo, 0.5 h

CCCc1nc2c(C)cc(C(=O)O)cc2n1CC[18F]
Drug uptake [1]: 4.48 % ID/g | Drug uptake [2]: 0.3 % ID/g | Drug uptake [3]: 2.66 % ID/g | Drug uptake [4]: 0.95 % ID/g | Drug uptake [5]: 5.44 % ID/g | Drug uptake [6]: 0.66 % ID/g | Drug uptake [7]: 1.08 % ID/g | Ratio [8]: 2.19 | Drug uptake [9]: 0.26 % ID/g | Ratio [10]: 1.16 | Drug uptake [11]: 3.17 % ID/g | Ratio [12]: 9.8 | Drug uptake [13]: 2.33 % ID/g | Ratio [14]: 7.15 | Ratio [15]: 1.28 | Drug uptake [16]: 7.4 % ID/g | Ratio [17]: 1.63 | Drug uptake [18]: 0.62 % ID/g | Drug uptake [19]: 0.49 % ID/g | Drug uptake [20]: 2.28 % ID/g | Drug uptake [21]: 1 % ID/g | Drug uptake [22]: 1.22 % ID/g | Drug uptake [23]: 1.78 % ID/g | Drug uptake [24]: 4.2 % ID/g | Drug uptake [25]: 1.49 % ID/g | Drug uptake [26]: 0.19 % ID/g | Drug uptake [27]: 0.2 % ID/g | Drug uptake [28]: 1.03 % ID/g | Drug uptake [29]: 1.55 % ID/g | Drug uptake [30]: 2.53 % ID/g | Drug uptake [31]: 4.13 % ID/g | Drug uptake [32]: 0.38 % ID/g | Ratio [33]: 0.72 | Ratio [34]: 1.27 | Drug uptake [35]: 1.41 % ID/g | Drug uptake [36]: 3.49 % ID/g | Drug uptake [37]: 0.19 % ID/g | Ratio [38]: 2.58 | Drug uptake [39]: 2.35 % ID/g | Drug uptake [40]: 4.02 % ID/g | Drug uptake [41]: 0.44 % ID/g | Drug uptake [42]: 0.05 % ID/g | Drug uptake [43]: 1.36 % ID/g

N[C@@H](Cc1ccc(OCC[18F])cc1)C(=O)O [FLORETYROSINE F18]
Drug uptake [1]: 5.89 % ID/g | Drug uptake [2]: 1.12 % ID/g | Drug uptake [3]: 3.41 % ID/g | Drug uptake [4]: 2.51 % ID/g | Drug uptake [5]: 9.82 % ID/g | Drug uptake [6]: 1.55 % ID/g | Drug uptake [7]: 3.14 % ID/g | Ratio [8]: 1.23 | Drug uptake [9]: 0.94 % ID/g | Ratio [10]: 0.75 | Drug uptake [11]: 6.81 % ID/g | Ratio [12]: 2.95 | Drug uptake [13]: 0.93 % ID/g | Ratio [14]: 2.92 | Ratio [15]: 0.72 | Drug uptake [16]: 2.38 % ID/g | Ratio [17]: 1.92 | Drug uptake [18]: 2.37 % ID/g | Drug uptake [19]: 2.15 % ID/g | Drug uptake [20]: 2.08 % ID/g | Drug uptake [21]: 0.22 % ID/g | Drug uptake [22]: 3.34 % ID/g | Drug uptake [23]: 2.88 % ID/g | Drug uptake [24]: 3.75 % ID/g | Drug uptake [25]: 3.28 % ID/g | Drug uptake [26]: 2.1 % ID/g | Drug uptake [27]: 0.09 % ID/g | Drug uptake [28]: 0.11 % ID/g | Drug uptake [29]: 3.56 % ID/g | Drug uptake [30]: 4.23 % ID/g | Drug uptake [31]: 7.67 % ID/g | Drug uptake [32]: 1.22 % ID/g | Ratio [33]: 0.31 | Ratio [34]: 0.62 | Drug uptake [35]: 2.5 % ID/g | Drug uptake [36]: 8.57 % ID/g | Drug uptake [37]: 0.94 % ID/g | Ratio [38]: 1.02 | Drug uptake [39]: 4.7 % ID/g | Drug uptake [40]: 5.6 % ID/g | Drug uptake [41]: 1.03 % ID/g | Drug uptake [42]: 0.73 % ID/g | Drug uptake [43]: 3.23 % ID/g
